According to ChEMBL document CHEMBL5291721, “A preclinical secondary pharmacology resource illuminates target-adverse drug reaction associations of marketed drugs” (Nat Commun, 2023):

Key:
Cannabinoid receptor 1 = Cannabinoid receptor 1 (Homo sapiens, UniProt P21554); format: functional, cell-based
[1] = biological target: T1, Gamma-aminobutyric acid receptor subunit alpha-1 (Rattus norvegicus, UniProt P62813); format: functional
[2] = biological target: T2, Muscarinic acetylcholine receptor M2 (Homo sapiens, UniProt P08172); format: functional, cell-based
T2 sequence (P08172 whole entry): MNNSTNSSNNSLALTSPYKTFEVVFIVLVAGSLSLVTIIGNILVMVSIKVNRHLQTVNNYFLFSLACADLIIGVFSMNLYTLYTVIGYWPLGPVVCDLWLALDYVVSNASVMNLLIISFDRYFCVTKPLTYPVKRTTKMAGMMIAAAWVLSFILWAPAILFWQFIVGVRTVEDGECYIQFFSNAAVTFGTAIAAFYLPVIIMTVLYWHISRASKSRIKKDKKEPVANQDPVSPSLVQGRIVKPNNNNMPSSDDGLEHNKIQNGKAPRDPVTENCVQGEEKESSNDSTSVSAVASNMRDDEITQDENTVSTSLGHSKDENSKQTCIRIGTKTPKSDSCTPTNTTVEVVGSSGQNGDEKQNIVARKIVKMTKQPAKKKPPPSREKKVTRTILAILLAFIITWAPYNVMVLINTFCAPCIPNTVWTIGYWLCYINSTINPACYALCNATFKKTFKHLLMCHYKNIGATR

Thromboxane A2 receptor = biological target: T3, Thromboxane A2 receptor (Homo sapiens, UniProt P21731)
T3 sequence (P21731 whole entry): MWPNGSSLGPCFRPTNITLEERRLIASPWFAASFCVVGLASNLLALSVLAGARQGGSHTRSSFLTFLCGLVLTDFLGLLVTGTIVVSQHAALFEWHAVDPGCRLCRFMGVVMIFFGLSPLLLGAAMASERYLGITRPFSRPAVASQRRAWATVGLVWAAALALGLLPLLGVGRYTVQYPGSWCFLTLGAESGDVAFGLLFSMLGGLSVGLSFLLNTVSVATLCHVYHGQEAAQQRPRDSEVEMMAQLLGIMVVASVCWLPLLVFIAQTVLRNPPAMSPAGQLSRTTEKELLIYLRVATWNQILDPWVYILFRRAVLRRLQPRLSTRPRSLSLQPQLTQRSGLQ

[3] = biological target: T4, Neuropeptide Y receptor type 1 (Homo sapiens, UniProt P25929)
T4 sequence (P25929 whole entry): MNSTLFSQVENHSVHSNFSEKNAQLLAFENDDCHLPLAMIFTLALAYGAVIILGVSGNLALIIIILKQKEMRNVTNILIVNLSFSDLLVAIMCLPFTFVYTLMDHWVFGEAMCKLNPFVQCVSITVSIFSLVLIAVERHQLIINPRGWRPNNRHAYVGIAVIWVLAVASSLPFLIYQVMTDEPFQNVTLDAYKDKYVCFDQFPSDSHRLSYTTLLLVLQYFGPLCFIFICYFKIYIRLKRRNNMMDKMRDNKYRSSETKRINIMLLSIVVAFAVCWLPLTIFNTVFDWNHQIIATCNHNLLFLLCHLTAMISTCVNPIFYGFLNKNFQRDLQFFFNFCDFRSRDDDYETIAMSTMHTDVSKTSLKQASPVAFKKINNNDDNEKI

Adenosine receptor A3 = biological target: T5, Adenosine receptor A3 (Homo sapiens, UniProt P0DMS8)
T5 sequence (P0DMS8 whole entry): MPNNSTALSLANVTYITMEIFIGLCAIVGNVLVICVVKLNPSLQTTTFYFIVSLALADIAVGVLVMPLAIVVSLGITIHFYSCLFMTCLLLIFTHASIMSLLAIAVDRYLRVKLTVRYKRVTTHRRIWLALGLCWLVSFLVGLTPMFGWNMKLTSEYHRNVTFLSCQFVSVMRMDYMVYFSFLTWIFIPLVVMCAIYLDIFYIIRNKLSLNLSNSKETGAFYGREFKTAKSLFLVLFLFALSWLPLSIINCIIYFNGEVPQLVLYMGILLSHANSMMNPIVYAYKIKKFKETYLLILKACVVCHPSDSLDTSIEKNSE

[4] = biological target: Muscarinic acetylcholine receptor M3 (Homo sapiens, UniProt P20309)
Muscarinic acetylcholine receptor M3, sequence (P20309 whole entry): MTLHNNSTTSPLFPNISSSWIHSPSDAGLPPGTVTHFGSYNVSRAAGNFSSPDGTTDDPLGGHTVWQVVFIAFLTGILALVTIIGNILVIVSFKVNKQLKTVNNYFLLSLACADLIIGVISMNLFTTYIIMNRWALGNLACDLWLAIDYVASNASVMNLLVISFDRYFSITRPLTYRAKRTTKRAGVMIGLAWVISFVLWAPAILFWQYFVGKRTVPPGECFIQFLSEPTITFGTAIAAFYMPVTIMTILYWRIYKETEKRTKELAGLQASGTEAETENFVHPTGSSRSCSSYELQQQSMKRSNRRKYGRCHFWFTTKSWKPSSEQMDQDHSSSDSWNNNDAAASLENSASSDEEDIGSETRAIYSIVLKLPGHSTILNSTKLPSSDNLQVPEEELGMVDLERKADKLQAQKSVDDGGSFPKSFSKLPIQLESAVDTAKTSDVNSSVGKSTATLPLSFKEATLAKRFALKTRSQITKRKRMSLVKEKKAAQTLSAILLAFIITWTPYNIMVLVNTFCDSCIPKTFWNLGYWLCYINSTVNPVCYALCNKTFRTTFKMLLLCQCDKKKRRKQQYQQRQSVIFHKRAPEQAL

[5] = biological target: Sodium-dependent serotonin transporter (Homo sapiens, UniProt P31645)
Sodium-dependent serotonin transporter, sequence (P31645 whole entry): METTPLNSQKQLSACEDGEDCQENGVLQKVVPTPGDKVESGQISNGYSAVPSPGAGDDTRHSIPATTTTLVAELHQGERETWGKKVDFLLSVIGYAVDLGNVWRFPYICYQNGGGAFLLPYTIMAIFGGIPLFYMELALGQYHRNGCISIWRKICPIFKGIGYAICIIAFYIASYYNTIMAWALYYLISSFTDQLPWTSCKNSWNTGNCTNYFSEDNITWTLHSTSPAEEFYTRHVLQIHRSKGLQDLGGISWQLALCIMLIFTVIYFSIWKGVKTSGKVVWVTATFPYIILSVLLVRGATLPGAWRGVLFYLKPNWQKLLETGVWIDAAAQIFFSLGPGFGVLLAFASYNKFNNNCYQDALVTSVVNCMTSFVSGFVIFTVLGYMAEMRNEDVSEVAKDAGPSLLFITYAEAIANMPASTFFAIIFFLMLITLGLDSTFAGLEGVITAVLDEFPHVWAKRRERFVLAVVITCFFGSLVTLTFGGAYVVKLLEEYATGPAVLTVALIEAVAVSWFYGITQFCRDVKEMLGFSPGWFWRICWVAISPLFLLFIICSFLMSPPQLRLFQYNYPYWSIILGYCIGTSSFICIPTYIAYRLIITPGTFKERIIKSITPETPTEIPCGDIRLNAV

[6] = biological target: 3',5'-cyclic-AMP phosphodiesterase 4D (Homo sapiens, UniProt Q08499); format: functional
3',5'-cyclic-AMP phosphodiesterase 4D, sequence (Q08499 whole entry): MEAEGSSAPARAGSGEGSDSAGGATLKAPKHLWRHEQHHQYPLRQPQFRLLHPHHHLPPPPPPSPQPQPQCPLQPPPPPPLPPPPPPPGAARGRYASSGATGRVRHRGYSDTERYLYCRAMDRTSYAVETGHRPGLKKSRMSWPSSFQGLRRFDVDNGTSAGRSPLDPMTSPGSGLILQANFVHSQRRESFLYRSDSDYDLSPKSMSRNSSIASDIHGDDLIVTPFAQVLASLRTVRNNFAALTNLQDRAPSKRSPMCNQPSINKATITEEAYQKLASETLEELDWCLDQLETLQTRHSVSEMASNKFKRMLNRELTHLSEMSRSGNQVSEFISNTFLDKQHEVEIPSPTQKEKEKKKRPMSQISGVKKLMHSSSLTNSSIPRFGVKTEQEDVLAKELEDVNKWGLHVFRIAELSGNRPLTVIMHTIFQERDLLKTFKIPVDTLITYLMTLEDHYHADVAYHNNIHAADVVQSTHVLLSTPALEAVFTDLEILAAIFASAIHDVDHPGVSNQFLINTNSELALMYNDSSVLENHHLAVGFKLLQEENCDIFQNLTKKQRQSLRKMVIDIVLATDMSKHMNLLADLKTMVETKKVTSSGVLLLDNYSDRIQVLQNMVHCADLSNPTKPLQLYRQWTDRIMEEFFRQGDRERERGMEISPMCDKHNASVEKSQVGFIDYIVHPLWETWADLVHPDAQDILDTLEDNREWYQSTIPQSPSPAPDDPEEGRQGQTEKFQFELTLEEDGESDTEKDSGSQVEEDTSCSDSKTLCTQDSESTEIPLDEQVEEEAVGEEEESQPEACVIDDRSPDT

[7] = biological target: Sodium-dependent dopamine transporter (Homo sapiens, UniProt Q01959)
Sodium-dependent dopamine transporter, sequence (Q01959 whole entry): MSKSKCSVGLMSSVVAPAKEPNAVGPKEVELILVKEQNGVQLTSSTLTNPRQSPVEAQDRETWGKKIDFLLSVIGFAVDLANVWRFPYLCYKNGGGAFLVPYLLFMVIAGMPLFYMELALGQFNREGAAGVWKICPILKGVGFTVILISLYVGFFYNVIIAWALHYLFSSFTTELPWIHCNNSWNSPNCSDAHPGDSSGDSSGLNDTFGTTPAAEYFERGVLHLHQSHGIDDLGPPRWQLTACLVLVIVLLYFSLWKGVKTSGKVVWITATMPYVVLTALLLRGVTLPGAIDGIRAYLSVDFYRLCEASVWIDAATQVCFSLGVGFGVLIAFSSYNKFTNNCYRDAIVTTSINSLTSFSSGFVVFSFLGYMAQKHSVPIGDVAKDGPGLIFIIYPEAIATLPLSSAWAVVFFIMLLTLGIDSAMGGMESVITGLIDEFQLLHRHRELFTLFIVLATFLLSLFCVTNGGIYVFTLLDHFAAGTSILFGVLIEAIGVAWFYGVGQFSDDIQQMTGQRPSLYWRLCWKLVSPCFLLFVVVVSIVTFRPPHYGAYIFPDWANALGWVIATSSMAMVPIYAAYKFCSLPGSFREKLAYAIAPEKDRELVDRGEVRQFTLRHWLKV

Glucocorticoid receptor = biological target: T6, Glucocorticoid receptor (Homo sapiens, UniProt P04150)
T6 sequence (P04150 whole entry): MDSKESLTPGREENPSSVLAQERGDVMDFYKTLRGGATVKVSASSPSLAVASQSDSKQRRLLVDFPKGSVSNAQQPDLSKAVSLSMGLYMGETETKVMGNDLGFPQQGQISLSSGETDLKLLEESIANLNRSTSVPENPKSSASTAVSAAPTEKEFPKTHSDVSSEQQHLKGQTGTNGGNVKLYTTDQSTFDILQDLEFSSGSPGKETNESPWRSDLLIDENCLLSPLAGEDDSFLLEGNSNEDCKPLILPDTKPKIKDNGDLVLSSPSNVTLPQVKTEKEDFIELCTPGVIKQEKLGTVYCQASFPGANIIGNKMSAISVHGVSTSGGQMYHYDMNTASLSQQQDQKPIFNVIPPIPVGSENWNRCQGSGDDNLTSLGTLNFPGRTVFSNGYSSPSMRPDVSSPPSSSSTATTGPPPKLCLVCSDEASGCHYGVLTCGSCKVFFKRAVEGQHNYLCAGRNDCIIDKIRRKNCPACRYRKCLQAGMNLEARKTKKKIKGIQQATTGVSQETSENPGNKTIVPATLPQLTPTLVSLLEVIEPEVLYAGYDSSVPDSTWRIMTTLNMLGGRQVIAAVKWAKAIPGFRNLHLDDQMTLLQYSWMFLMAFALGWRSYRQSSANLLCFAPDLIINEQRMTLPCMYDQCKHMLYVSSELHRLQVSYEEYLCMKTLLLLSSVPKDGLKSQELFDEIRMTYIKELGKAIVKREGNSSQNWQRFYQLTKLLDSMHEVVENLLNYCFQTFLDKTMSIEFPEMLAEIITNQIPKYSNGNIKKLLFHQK

[8] = biological target: Delta-type opioid receptor (Homo sapiens, UniProt P41143)
Delta-type opioid receptor, sequence (P41143 whole entry): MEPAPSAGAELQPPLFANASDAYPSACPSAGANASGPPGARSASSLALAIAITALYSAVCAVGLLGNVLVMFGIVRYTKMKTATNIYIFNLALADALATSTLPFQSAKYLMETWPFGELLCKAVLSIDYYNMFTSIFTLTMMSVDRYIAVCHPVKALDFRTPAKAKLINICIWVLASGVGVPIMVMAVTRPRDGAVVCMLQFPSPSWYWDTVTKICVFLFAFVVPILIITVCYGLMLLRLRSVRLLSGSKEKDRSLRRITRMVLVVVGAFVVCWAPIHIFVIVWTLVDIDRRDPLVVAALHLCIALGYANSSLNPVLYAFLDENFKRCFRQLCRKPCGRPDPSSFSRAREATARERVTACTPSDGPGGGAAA

[9] = biological target: T2, Muscarinic acetylcholine receptor M2; format: functional, cell-based; remark: listed apart in the source
[10] = biological target: T1, Gamma-aminobutyric acid receptor subunit alpha-1
Also: assay procedure not described here.

T1 sequence (P62813 whole entry): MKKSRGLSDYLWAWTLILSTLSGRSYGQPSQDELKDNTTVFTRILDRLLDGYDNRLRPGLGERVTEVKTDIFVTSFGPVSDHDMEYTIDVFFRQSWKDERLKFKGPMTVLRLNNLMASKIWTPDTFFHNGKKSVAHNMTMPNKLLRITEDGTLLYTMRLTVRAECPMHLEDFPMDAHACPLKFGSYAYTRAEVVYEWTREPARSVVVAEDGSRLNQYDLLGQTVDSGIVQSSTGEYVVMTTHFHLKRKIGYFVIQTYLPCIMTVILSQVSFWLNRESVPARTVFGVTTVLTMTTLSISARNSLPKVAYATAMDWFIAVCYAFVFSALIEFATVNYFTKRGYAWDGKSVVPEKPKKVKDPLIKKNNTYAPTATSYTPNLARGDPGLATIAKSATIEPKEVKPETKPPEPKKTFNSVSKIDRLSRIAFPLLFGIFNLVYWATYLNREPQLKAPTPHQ
Cannabinoid receptor 1, sequence (P21554 whole entry): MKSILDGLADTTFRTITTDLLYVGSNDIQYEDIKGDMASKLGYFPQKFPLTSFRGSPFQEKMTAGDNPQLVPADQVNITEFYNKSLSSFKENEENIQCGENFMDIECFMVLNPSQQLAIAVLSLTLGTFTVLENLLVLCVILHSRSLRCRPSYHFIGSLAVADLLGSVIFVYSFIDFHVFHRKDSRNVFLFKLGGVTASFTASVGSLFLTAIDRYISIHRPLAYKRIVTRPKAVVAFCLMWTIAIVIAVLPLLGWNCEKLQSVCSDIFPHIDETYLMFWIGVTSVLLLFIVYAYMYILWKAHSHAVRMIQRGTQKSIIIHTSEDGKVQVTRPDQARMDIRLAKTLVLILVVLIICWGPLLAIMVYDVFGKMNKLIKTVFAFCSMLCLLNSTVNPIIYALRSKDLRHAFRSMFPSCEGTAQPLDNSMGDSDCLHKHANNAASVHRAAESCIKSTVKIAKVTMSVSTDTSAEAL

Row | SMILES | AC50 (Cannabinoid receptor 1) [µM] | AC50 [1] [µM] | AC50 [2] [µM] | AC50 (Thromboxane A2 receptor) [µM] | AC50 [3] [µM] | AC50 (Adenosine receptor A3) [µM] | AC50 [4] [µM] | AC50 [5] [µM] | AC50 [6] [µM] | AC50 [7] [µM] | AC50 (Glucocorticoid receptor) [µM] | AC50 [8] [µM] | AC50 [9] [µM] | AC50 [10] [µM]
1 | O=C(O)Cc1cn(-c2ccccc2)nc1-c1ccc(Cl)cc1 [LONAZOLAC] | > 30 | > 30 | > 30 | > 30 | > 30 | > 30 | > 30 | > 30 | > 30 | > 30 | > 30 | > 30 | > 30 | > 30
2 | C#C[C@]1(O)CC[C@H]2[C@@H]3CCC4=CCCC[C@@H]4[C@H]3CC[C@@]21C [LYNESTRENOL] | > 30 | > 30 | > 30 | > 30 | > 30 | > 30 | > 30 | > 30 | > 30 | > 30 | > 30 | > 30 | > 30 | > 30
3 | CCCCC(C)(O)C/C=C/[C@H]1[C@H](O)CC(=O)[C@@H]1CCCCCCC(=O)OC (stereo partly drawn) [MISOPROSTOL] | > 30 | > 30 | > 30 | > 30 | > 30 | > 30 | > 30 | > 30 | > 30 | > 30 | > 30 | > 30 | > 30 | > 30
4 | O=C(OCCN1CCOCC1)c1cccnc1Nc1cccc(C(F)(F)F)c1 [MORNIFLUMATE] | > 30 | > 30 | > 30 | > 30 | > 30 | > 30 | > 30 | > 30 | 4.3 | 12 | > 30 | > 30 | > 30 | > 30
5 | CN1C(=O)CC(c2ccccc2)C1=O (stereo not drawn) [PHENSUXIMIDE] | > 30 | > 10 | > 10 | > 10 | > 10 | > 10 | > 30 | > 10 | > 30 | > 10 | > 10 | > 30 | > 10 | > 10
6 | Cc1c(Cl)cccc1Nc1ccccc1C(=O)O [TOLFENAMIC ACID] | > 30 | > 30 | > 30 | > 30 | > 30 | 12 | > 30 | > 30 | > 30 | > 30 | > 30 | > 30 | > 30 | > 30
7 | COc1ccc(C(=O)N2CCN(c3ccc4c(c3)CCC(=O)N4)CC2)cc1OC [VESNARINONE] | > 30 | > 30 | > 30 | > 30 | > 30 | > 30 | > 30 | 21 | > 30 | > 30 | 8 | > 30 | > 30 | > 30
